Source: ChEMBL document CHEMBL1156099, “Pyrazolo[1,5-a]pyrimidine-based inhibitors of HCV polymerase” (Bioorg Med Chem Lett, 2009)
Calls of active or inactive are those of the source. The calls are words filed in the database; no cut-off is given here.

System: not listed separately
Experiment: Inhibition of HCV recombinant NS5B Cdelta21 RdRp expressed in Escherichia coli assessed as [3H]GTP incorporation after 3 hrs by scintillation proximity assay-based RNA polymerase assay
Set-up: species or system Hepacivirus hominis
Conditions: not given

Compound | IC50
O=S1(=O)CCC(c2c(-c3ccc(OCc4ccccc4)cc3)cnc3c(-c4nnn[nH]4)cnn23)CC1 | Not Active
c1ccc(COc2ccc(-c3cnc4c(-c5nnn[nH]5)cnn4c3C3CC3)cc2)cc1 | Not Active
c1ccc(COc2ccc(-c3cnc4c(-c5nnn[nH]5)cnn4c3-c3ccccc3)cc2)cc1 | Not Active
NC(=O)c1cnn2c(C3CCCCC3)c(-c3ccc(OCc4ccccc4)cc3)cnc12 | Not Active

Same assay, conditions: read-out: IC50

Compound | IC50
c1cc(COc2ccc(-c3cnc4c(-c5nnn[nH]5)cnn4c3C3CCCCC3)cc2)ccn1 | 710 nM
O=C(Nc1nnn[nH]1)c1cnn2c(C3CCCCC3)c(-c3ccc(OCc4ccccc4)cc3)cnc12 | 670 nM
CC(C)CCc1c(-c2ccc(OCc3ccccc3)cc2)cnc2c(-c3nnn[nH]3)cnn12 | 4600 nM
c1ccc(Oc2ccc(-c3cnc4c(-c5nnn[nH]5)cnn4c3C3CCCCC3)cc2)cc1 | 400 nM
OCc1cnn2c(C3CCCCC3)c(-c3ccc(OCc4ccccc4)cc3)cnc12 | 12500 nM
c1cc(-c2cnc3c(-c4nnn[nH]4)cnn3c2C2CCCCC2)ccc1OC1CCCCC1 | 400 nM
COc1cccc(Oc2ccc(-c3cnc4c(-c5nnn[nH]5)cnn4c3C3CCCCC3)cc2)c1 | 400 nM
NC(=O)[C@H](Cc1ccc(O)cc1)NC(=O)c1cnn2c(C3CCCCC3)c(-c3ccc(F)cc3)cnc12 | 24 nM
CS(=O)(=O)c1cccc(Oc2ccc(-c3cnc4c(-c5nnn[nH]5)cnn4c3C3CCCCC3)cc2)c1 | 200 nM
O=C(NS(=O)(=O)c1ccccc1)c1cnn2c(C3CCCCC3)c(-c3ccc(OCc4ccccc4)cc3)cnc12 | 760 nM
c1ccc(-c2ccc(-c3cnc4c(-c5nnn[nH]5)cnn4c3C3CCCCC3)cc2)cc1 | 2800 nM
c1ccc(COc2ccc(-c3cnc4c(-c5nnn[nH]5)cnn4c3C3CCOCC3)cc2)cc1 | 12000 nM
O=C(O)c1ccc2c(c1)nc(-c1ccoc1)n2C1CCCCC1 | 1600 nM
NCCCC[C@H](NC(=O)c1cnn2c(C3CCCCC3)c(-c3ccc(F)cc3)cnc12)C(=O)O | 480 nM
O=C(N[C@H](Cc1ccc(O)cc1)C(=O)O)c1cnn2c(C3CCCCC3)c(-c3ccc(F)cc3)cnc12 | 960 nM
O=C(N[C@@H](Cc1ccc(O)cc1)C(=O)O)c1cnn2c(C3CCCCC3)c(-c3ccc(F)cc3)cnc12 | 20 nM
O=C(O)c1cc2nc(-c3ccc(Cl)cc3)cc(-c3ccc(Oc4ccccc4)cc3)n2n1 | 6000 nM
CS(=O)(=O)NC(=O)c1cnn2c(C3CCCCC3)c(-c3ccc(OCc4ccccc4)cc3)cnc12 | 1600 nM
O=C(O)c1cnn2c(C3CCCCC3)c(-c3ccc(F)cc3)cnc12 | 930 nM
Cn1nnnc1-c1cnn2c(C3CCCCC3)c(-c3ccc(OCc4ccccc4)cc3)cnc12 | 50000 nM
CS(=O)(=O)c1cccc(-c2ccc(-c3cnc4c(-c5nnn[nH]5)cnn4c3C3CCCCC3)cc2)c1 | 930 nM

Compound | IC50
CC(C)C[C@H](NC(=O)c1cnn2c(C3CCCCC3)c(-c3ccc(F)cc3)cnc12)C(=O)O | 290 nM
O=C(N[C@H](Cc1c[nH]c2ccccc12)C(=O)O)c1cnn2c(C3CCCCC3)c(-c3ccc(F)cc3)cnc12 | 450 nM
COC(=O)c1cccc(COc2ccc(-c3cnc4c(-c5nnn[nH]5)cnn4c3C3CCCCC3)cc2)c1 | 220 nM
NC(=O)[C@H](Cc1c[nH]c2ccccc12)NC(=O)c1cnn2c(C3CCCCC3)c(-c3ccc(OCc4ccccc4)cc3)cnc12 | 90 nM
O=C(NO)c1cnn2c(C3CCCCC3)c(-c3ccc(OCc4ccccc4)cc3)cnc12 | 1900 nM
O=C(N[C@@H](Cc1ccccc1)C(=O)O)c1cnn2c(C3CCCCC3)c(-c3ccc(F)cc3)cnc12 | 2000 nM
COc1cccc(COc2ccc(-c3cnc4c(-c5nnn[nH]5)cnn4c3C3CCCCC3)cc2)c1 | 600 nM
CC(C)Cc1c(-c2ccc(OCc3ccccc3)cc2)cnc2c(-c3nnn[nH]3)cnn12 | 6000 nM
O=C(O)c1ccc2c(c1)nc(-c1ccc(OCc3ccccc3)cc1)n2C1CCCCC1 | 530 nM
O=C(O)c1cnn2c(C3CCCCC3)c(-c3ccc(OCc4ccccc4)cc3)cnc12 | 590 nM
Cc1c(-c2ccc(OCc3ccccc3)cc2)cnc2c(-c3nnn[nH]3)cnn12 | 12500 nM
c1ccc(COc2ccc(-c3cnc4c(-c5nnn[nH]5)cnn4c3C3CCCCC3)cc2)cc1 | 450 nM
COC(=O)c1ccc(COc2ccc(-c3cnc4c(-c5nnn[nH]5)cnn4c3C3CCCCC3)cc2)cc1 | 190 nM
c1ccc(COc2ccc(-c3cnc4c(-c5ncn[nH]5)cnn4c3C3CCCCC3)cc2)cc1 | 5700 nM
CC(C)c1c(-c2ccc(OCc3ccccc3)cc2)cnc2c(-c3nnn[nH]3)cnn12 | 8600 nM
O=C(O)c1ccc(COc2ccc(-c3cnc4c(-c5nnn[nH]5)cnn4c3C3CCCCC3)cc2)cc1 | 42 nM
c1ccc(COc2ccc(-c3cnc4c(-c5nnn[nH]5)cnn4c3C3CCSCC3)cc2)cc1 | 3400 nM
O=C(N[C@@H](Cc1c[nH]c2ccccc12)C(=O)O)c1cnn2c(C3CCCCC3)c(-c3ccc(F)cc3)cnc12 | 20 nM
FC(F)(F)c1cccc(COc2ccc(-c3cnc4c(-c5nnn[nH]5)cnn4c3C3CCCCC3)cc2)c1 | 400 nM
Fc1ccc(-c2cnc3c(-c4nnn[nH]4)cnn3c2C2CCCCC2)cc1F | 700 nM
O=C(N[C@@H](Cc1c[nH]c2ccc(O)cc12)C(=O)O)c1cnn2c(C3CCCCC3)c(-c3ccc(F)cc3)cnc12 | 11 nM

System: Hepatitis C virus
Experiment: Antiviral activity against HCV infected in human hepatoma cells by RNA replicon assay
Assay type: functional, organism-based
Conditions: Hepacivirus hominis

Compound | Activity
O=C(O)c1cnn2c(C3CCCCC3)c(-c3ccc(F)cc3)cnc12 | Active
O=C(O)c1cnn2c(C3CCCCC3)c(-c3ccc(OCc4ccccc4)cc3)cnc12 | Active
c1ccc(COc2ccc(-c3cnc4c(-c5nnn[nH]5)cnn4c3C3CCCCC3)cc2)cc1 | Active
